In patent publication US12509452B2, “Substituted-isoxazoline-containing aromatic compound, preparation method therefor, herbicidal composition and use thereof” (QINGDAO KINGAGROOT CHEMICAL COMPOUND CO., LTD., priority 2019, dated 2025):

What was measured:
Test in all cases: weeding effect in post-emergence stage
Type in all cases: in vivo
[1] = test system: Alopecurus japonicus
Source text: (§1) The activity level criteria for plant damage (i.e., growth control rate) are as follows: • Level 5: growth control rate is above 85%; • Level 4: growth control rate is greater than or equal to 60% and less than 85%; • Level 3: growth control rate is greater than or equal to 40% and less than 60%; • Level 2: growth control rate is greater than or equal to 20% and less than 40%; • Level 1: growth control rate is greater than or equal to 5% and less than 20%; • Level 0: growth control rate is less than 5%.
(§2) The above growth control rates are fresh weight control rates.
(§3) Experiment on weeding effect in post-emergence stage:
(§4) Monocotyledonous and dicotyledonous weed seeds (Descurainia sophia, Capsella bursa-pastoris, Abutilon theophrasti, Galium aparine, Stellaria media, Lithospermum arvense, Rorippa indica, Alopecurus aequalis, Alopecurus japonicus, Beckmannia syzigachne, Sclerochloa dura, Conyza Canadensis, Phleum paniculatum, Veronica didyma Tenore, Bromus japonicus, Aegilops tauschii, Phalaris arundinacea, Amaranthus retroflexus, Chenopodium album, Commelina communis, Sonchus arvensis, Convolvulus arvensis, Cirsium setosum, Solanum nigrum, Acalypha australis, Digitaria sanguinalis, Echinochloa crusgalli, Setaria viridis, Setaria glauca, Leptochloa chinensis, Monochoria vaginalis, Sagittaria trifolia, Scirpus juncoides, Cyperus rotundus, Cyperus iria, Cyperus difformis, Fimbristylis, Portulaca oleracea, Xanthium sibiricum, Pharbitis nil, Conyza japonica, etc.) and major crop seeds (wheat, corn, rice, soybean, cotton, oilseed rape, millet, sorghum, potato, sesame, ricinus, etc.) were placed in plastic pots filled with soil, then covered with 0.5-2 cm of soil, allowed to grow in a good greenhouse environment. After 2 weeks of sowing, the test plants were treated in the 2-3 leaf stage. The tested compounds of the present invention were respectively dissolved in acetone, then added with Tween 80 and 1.5 liter/ha of emulsifiable concentrate of methyl oleate as synergist, diluted with a certain amount of water to obtain a solution with a certain concentration, and sprayed with a spray tower onto the plants. After the application, the plants were cultured for 3 weeks in the greenhouse, and then the experimental results of the weeding were counted. The doses of the used compounds were 500, 250, 125, 60, 15, 7.5 g a.i./ha, and the averages were obtained by repeating for three times.

[2] = test system: Beckmannia syzigachne
Source text: as §1, §2, §3, §4

[3] = test system: Conyza japonica
Source text: as §1, §2, §3, §4

[4] = test system: Rorippa indica
Source text: as §1, §2, §3, §4

Row | SMILES | weeding effect in post-emergence stage, Alopecurus japonicus (activity level) ([1]; dose 125 g a.i./ha) | weeding effect in post-emergence stage, Beckmannia syzigachne (activity level) ([2]; dose 125 g a.i./ha) | weeding effect in post-emergence stage, Conyza japonica (activity level) ([3]; dose 125 g a.i./ha) | weeding effect in post-emergence stage, Rorippa indica (activity level) ([4]; dose 125 g a.i./ha) | weeding effect in post-emergence stage, Alopecurus japonicus (activity level) ([1]; dose 15 g a.i./ha) | weeding effect in post-emergence stage, Beckmannia syzigachne (activity level) ([2]; dose 15 g a.i./ha) | weeding effect in post-emergence stage, Conyza japonica (activity level) ([3]; dose 15 g a.i./ha) | weeding effect in post-emergence stage, Rorippa indica (activity level) ([4]; dose 15 g a.i./ha)
1 | CCOC(=O)COC(C)C1(C(=O)OCC)CC(c2cc(-n3c(=O)n(C)c(=S)n(C)c3=O)c(F)cc2Cl)=NO1 (mixture of isomers) [Compound 55] | 5 (Level 5: growth control rate is above 85%) | 5 (Level 5: growth control rate is above 85%) | 5 (Level 5: growth control rate is above 85%) | 5 (Level 5: growth control rate is above 85%) |  |  |  | 
2 | CCOC(=O)C1(CC)CC(c2cc(-n3c(=O)n(C)c(=S)n(C)c3=O)c(F)cc2Cl)=NO1 (racemic) [Compound 3] | 5 (Level 5: growth control rate is above 85%) | 5 (Level 5: growth control rate is above 85%) | 5 (Level 5: growth control rate is above 85%) | 5 (Level 5: growth control rate is above 85%) | 5 (Level 5: growth control rate is above 85%) | 5 (Level 5: growth control rate is above 85%) | 5 (Level 5: growth control rate is above 85%) | 5 (Level 5: growth control rate is above 85%)
3 | CCCC1(C(=O)OCC)CC(c2cc(-n3c(=O)n(C)c(=S)n(C)c3=O)c(F)cc2Cl)=NO1 (racemic) [Compound 4] | 5 (Level 5: growth control rate is above 85%) | 5 (Level 5: growth control rate is above 85%) | 5 (Level 5: growth control rate is above 85%) | 5 (Level 5: growth control rate is above 85%) | 5 (Level 5: growth control rate is above 85%) | 4 (Level 4: growth control rate is greater than or equal to 60% and less than 85%) | 4 (Level 4: growth control rate is greater than or equal to 60% and less than 85%) | 5 (Level 5: growth control rate is above 85%)
4 | CCOC(=O)C1(C(C)C)CC(c2cc(-n3c(=O)n(C)c(=S)n(C)c3=O)c(F)cc2Cl)=NO1 (racemic) [Compound 5] | 5 (Level 5: growth control rate is above 85%) | 5 (Level 5: growth control rate is above 85%) | 5 (Level 5: growth control rate is above 85%) | 5 (Level 5: growth control rate is above 85%) | 5 (Level 5: growth control rate is above 85%) | 4 (Level 4: growth control rate is greater than or equal to 60% and less than 85%) | 4 (Level 4: growth control rate is greater than or equal to 60% and less than 85%) | 5 (Level 5: growth control rate is above 85%)
5 | CCCCC1(C(=O)OCC)CC(c2cc(-n3c(=O)n(C)c(=S)n(C)c3=O)c(F)cc2Cl)=NO1 (racemic) [Compound 6] | 5 (Level 5: growth control rate is above 85%) | 5 (Level 5: growth control rate is above 85%) | 5 (Level 5: growth control rate is above 85%) | 5 (Level 5: growth control rate is above 85%) | 5 (Level 5: growth control rate is above 85%) | 5 (Level 5: growth control rate is above 85%) | 5 (Level 5: growth control rate is above 85%) | 5 (Level 5: growth control rate is above 85%)
6 | CCOC(=O)C1(C2CC2)CC(c2cc(-n3c(=O)n(C)c(=S)n(C)c3=O)c(F)cc2Cl)=NO1 (racemic) [Compound 17] | 5 (Level 5: growth control rate is above 85%) | 5 (Level 5: growth control rate is above 85%) | 5 (Level 5: growth control rate is above 85%) | 5 (Level 5: growth control rate is above 85%) | 5 (Level 5: growth control rate is above 85%) | 5 (Level 5: growth control rate is above 85%) | 5 (Level 5: growth control rate is above 85%) | 5 (Level 5: growth control rate is above 85%)
7 | CCOC(=O)C1(CC2CC2)CC(c2cc(-n3c(=O)n(C)c(=S)n(C)c3=O)c(F)cc2Cl)=NO1 (racemic) [Compound 26] | 5 (Level 5: growth control rate is above 85%) | 5 (Level 5: growth control rate is above 85%) | 5 (Level 5: growth control rate is above 85%) | 5 (Level 5: growth control rate is above 85%) | 5 (Level 5: growth control rate is above 85%) | 5 (Level 5: growth control rate is above 85%) | 5 (Level 5: growth control rate is above 85%) | 5 (Level 5: growth control rate is above 85%)
8 | CCOC(=O)C1(CBr)CC(c2cc(-n3c(=O)n(C)c(=S)n(C)c3=O)c(F)cc2Cl)=NO1 (racemic) [Compound 31] | 5 (Level 5: growth control rate is above 85%) | 5 (Level 5: growth control rate is above 85%) | 5 (Level 5: growth control rate is above 85%) | 5 (Level 5: growth control rate is above 85%) |  |  |  | 
9 | CCOC(=O)C1(C(F)(F)F)CC(c2cc(-n3c(=O)n(C)c(=S)n(C)c3=O)c(F)cc2Cl)=NO1 (racemic) [Compound 33] | 5 (Level 5: growth control rate is above 85%) | 5 (Level 5: growth control rate is above 85%) | 5 (Level 5: growth control rate is above 85%) | 5 (Level 5: growth control rate is above 85%) |  |  |  | 
10 | CCOC(=O)C1(CCF)CC(c2cc(-n3c(=O)n(C)c(=S)n(C)c3=O)c(F)cc2Cl)=NO1 (racemic) [Compound 34] | 5 (Level 5: growth control rate is above 85%) | 5 (Level 5: growth control rate is above 85%) | 5 (Level 5: growth control rate is above 85%) | 5 (Level 5: growth control rate is above 85%) | 5 (Level 5: growth control rate is above 85%) | 5 (Level 5: growth control rate is above 85%) | 5 (Level 5: growth control rate is above 85%) | 5 (Level 5: growth control rate is above 85%)
11 | CCOC(=O)C1(CC(F)F)CC(c2cc(-n3c(=O)n(C)c(=S)n(C)c3=O)c(F)cc2Cl)=NO1 (racemic) [Compound 35] | 5 (Level 5: growth control rate is above 85%) | 5 (Level 5: growth control rate is above 85%) | 5 (Level 5: growth control rate is above 85%) | 5 (Level 5: growth control rate is above 85%) |  |  | 4 (Level 4: growth control rate is greater than or equal to 60% and less than 85%) | 5 (Level 5: growth control rate is above 85%)
